“Also recorded” adds a separate entry of the source.
How the values were obtained:
[1] = tested on: C. elegans; experiment: Lethality assays, dose-dependent, wild-type L4; format: in vivo, Caenorhabditis elegans; details: for LC50: Caenorhabditis elegans, L4 wild-type
Description: Dose-dependent lethality was quantified by exposing 40 L4s to DII (0–1000 μM) dissolved in solid medium for 8 and 24 h at 20°C. For survival to 96 h of DII exposure the temperature used was 13°C to avoid food depletion.

[2] = tested on: HEK-293 cells; experiment: Human cell toxicity, propidium iodide staining; format: cell-based
Description: HEK-293 cells were cultured in DMEM medium (Gibco, USA) containing 10% fetal bovine serum (FBS) (Gibco, USA) and penicillin/streptomycin (Gibco, USA) at 37°C in an atmosphere containing 5% CO2. Before DII exposure, cells were dissociated using trypsin-EDTA and seeded in 96 multiwell plates at a density of 1x10^4 cells/ml. Cells were resuspended in fresh medium and different drug concentrations were subsequently added. After 8 h of incubation with 0, 200 and 600 μM of DII or 96 h of incubation with 0 and 100 μM of DII, cells were washed 3 times with PBS and propidium iodide (PI, final concentration 50 μg/ml) was added to stain dead cells. PI incubation was performed for 10 min in the dark at room temperature. DMSO (0–0.7%) and chloroquine (50–200 μM) were used as vehicle and positive controls, respectively. Images were acquired with a Nikon Eclipse TE 2000 fluorescence microscope. The number of stained cells was analyzed manually. At least 3 independent experiments were analyzed.

[3] = tested on: Drosophila melanogaster; experiment: Drosophila melanogaster larval viability; format: in vivo; details: 300–1200 μM in food, about 40 h of exposure
Description: All experiments were done at 25°C, under a 12:12 dark:light cycle using the w^1118 strain. Mated females were allowed to lay eggs for 4 h on apple juice egg laying plates supplemented with a thin layer of normal fly food. 2 h after the initiation of egg laying was considered time "0". 30–40 late L2 larvae (66 h after egg laying) were transferred from the plates to tubes containing 3 ml of fly food with 300, 600 and 1200 μM DII or the corresponding concentration of dimethylsulfoxide (DMSO, molecular biology grade, AppliChem). Under these conditions, larvae were exposed to DII until they left the food to pupariate about 40 h later. Larval viability was calculated as the percentage of larvae that reached the pupal stage.
To add drugs, fly food was melted and cooled to 60°C, 3 ml of food were dispensed in tubes and an appropriate volume of DMSO or drug was added and thoroughly mixed. Control tubes without DMSO and […] were prepared following the same procedure. The experiment was independently repeated at least three times.

[4] = tested on: C. elegans mutant strains; experiment: DII nematicidal effect on mutant strains; format: in vivo, Caenorhabditis elegans
Description: To evaluate DII nematicidal effects on mutant strains two different conditions were tested: i) ~40 L4s were exposed to DII (600 μM) in NGM plates and survival was scored at 4, 8, 24, 48 and 72 h, ii) ~40 L4s were exposed to 50 μM for 96 h and survival was subsequently scored. […] At least three independent experiments were analyzed.

[5] = tested on: C. elegans; experiment: Acute paralysis assays; format: in vivo, Caenorhabditis elegans; details: 10 min
Description: Acute paralysis assays were carried out in microtiter plates containing the drug dissolved in M9 buffer. […] Each drug concentration was tested in two wells (containing 30 animals each) within a single experiment. […] The experiment was independently repeated at least three times.

[6] = tested on: C. elegans; experiment: Worm cut preparation paralysis; format: in vivo, Caenorhabditis elegans; details: 10 min; DII 600 μM, levamisole 10 μM; listed as DII
Description: Cutworm assays were performed as previously described with slight modifications. Briefly, synchronized young adult animals were mounted in a glass microscope slide containing Artificial Perienteric Fluid (APF) (67 mM NaCl, 67 mM NaCH3COOH, 3 mM KCl, 15.7 mM MgCl2, 3 mM CaCl2 and 5 mM Tris, pH 7.6). 10 animals were severed between the middle and tail, approximately two-thirds from the anterior end. Worms were subsequently transferred to a multi-well plate containing APF or drug-APF and paralysis was evaluated after 10 minutes. All experiments were performed at least three times.

[7] = tested on: C. elegans; experiment: Egg-laying assays; format: in vivo, Caenorhabditis elegans; details: gravid worms
Description: Age-synchronized gravid worms were transferred to solid NGM plates containing different drug concentrations (100–300 μM). Each concentration was evaluated in triplicate and DMSO was used as a control. After 1 h, the number of laid eggs per worm was counted. This experiment was independently repeated three times.

[8] = tested on: C. elegans; experiment: Toxicity at early developmental stages (eggs, hatching, developmental rate); format: in vivo, Caenorhabditis elegans
Description: Briefly, gravid worms were collected and exposed to an alkaline hypochlorite solution (0.5 M NaOH and 1% NaOCl) to destroy adult worm tissues (eggs are resistant to bleach due to their chitin eggshell). Eggs were subsequently isolated with a sterile 60% sucrose solution and seeded on 35 mm NGM plates containing DII (100, 300 and 600 μM) or DMSO as a control. Hatched animals were quantified after 48 h. The results were expressed as follows: Number of living animals x 100/ Total number of eggs seeded. This experiment was independently repeated three times.
For ovicidal assessment, isolated eggs were seeded in NGM plates containing DII (600 μM) and video-recorded for 12 h. An egg was considered as non-viable if no hatching was observed during the recorded time.
The number of animals at different developmental stages (L1-L3, L4, and adults) was counted at 24, 48 and 72 h. The results were expressed as the number of animals at a given stage x 100/ Total number of living worms at that time point. This experiment was independently repeated three times.

[9] = tested on: E. coli OP50; experiment: OP50 growth in screening wells (qualitative); format: cell-based, Escherichia coli; details: 150 μg/ml, qualitative observation
Source text: During the screening assays, we qualitatively noticed that OP50 growth was inhibited in wells containing MI. This effect was not observed with DII. To quantify this observation, we determined minimum inhibitory concentration (MIC) and minimum bactericidal concentration (MBC) of both compounds in E. coli cultures (Fig 2A). […] Similar values were obtained when we performed these assays on S. aureus, a Gram-positive bacteria (Fig 2A). […] As we are here screening for specific anthelmintic activity, we restricted our further analysis to compounds that appear to exert nematicidal action without obvious lethal effects on other organisms. Therefore, we focused our studies only on DII, relegating the evaluation of MI as a potential anthelmintic drug.

[10] = 600 μM, short exposure times, no difference after 48 h
[11] = eggs exposed to 600 μM, 24, 48 and 72 h

## CC(C)c1cccc(C(C)C)c1-n1ccnc1 [Compound 11]
[1]; 24 h of exposure, micromolar concentrations
  lethality: 100%
[1]; 8 h of exposure
  LC50: 448.5 ± 1.1 µM
[1]; 24 h of exposure
  LC50: 342.3 ± 1 µM
[1]; 96 h of exposure, 13°C
  LC50: 23.4 ± 1.06 µM
[2]; 0–600 μM, 8 h
  cell viability: do not affect viability on HEK-293 cells
[2]; up to 100 μM, 96 h
  cell viability: do not affect cell viability
[3]
  larval viability (larvae that reached the pupal stage): does not affect Drosophila larval viability
[4]; 50 μM, 96 h
  survival of unc-29 null mutant strain, long exposure: resistant
[4]; 600 μM, 4-72 h
  survival of lev-8 mutants vs wild-type: as sensitive to DII as the wild-type
  survival of unc-63 mutants vs wild-type: as sensitive to DII as the wild-type
[4]; [10]
  survival of lev-1 mutants vs wild-type: slightly resistant
  survival of unc-38 mutants vs wild-type: slightly resistant
[4]; CB1072, 600 μM, 4-72 h, listed as DII
  survival of unc-29(e1072)I null mutants vs wild-type: extremely resistant
[4]; myo-3::unc-29, unc-29(e1072)I, 600 μM
  DII-mediated death in muscle unc-29 rescue strain OAR61: completely restores
[5]; 100 μM
  paralysis in CB407 unc-49(e407)III hypersensitive strain: no paralyzing effects
[5]; 800 μM (highest concentration tested)
  immobilized animals: 25%
[5]; DII 100 and 200 μM, intact animals
  change of the dose-effect curve of levamisole by DII: no significant changes
[6]
  paralysis in cut specimens: unable to induce paralysis; also recorded: fail to produce significant paralysis
[7]; 100 μM
  laid eggs in 1 h, fold more than controls: did not produce an increase
[7]; 300 μM, 1 h
  reduction in the number of laid eggs: 3.6 fold
[8]; 600 μM, within 12 hours, video recording
  eggs hatched: 100%
[8]; [11]
  developmental rate, unc-29 null mutants: delays the development
  developmental rate, wild-type: delays nematode development
[8]; eggs exposed to 100, 300 and 600 μM, 48 h
  number of viable animals relative to eggs seeded: significantly reduced
[8]; eggs on DII-containing plates (600 μM), 72 h
  survivors that were adults: less than 5%
[9]
  OP50 growth in screening wells: not observed
